# Measured values published in ChEMBL document CHEMBL3045545, “Control of chickpea blight disease caused by Didymella rabiei by mixing resistance inducer and contact fungicide” (2011).
# Activity calls are given as the source filed them. The calls are words filed in the database; no cut-off is given here.
# What was measured:
# Ascochyta rabiei [1] = assay: Antifungal activity against Didymella rabiei inoculated in chickpea plant assessed as reduction in chickpea blight disease at 100 ppm compound single spray 24 hr before inoculation by green house experiment; assay type: functional
# Ascochyta rabiei [2] = assay: Antifungal activity against Didymella rabiei isolate ARL1 inoculated in chickpea seedlings assessed as reduction in chickpea blight disease at 100 ppm compound treated 24 hr prior seedlings by green house experiment; assay type: functional, organism-based
# Ascochyta rabiei [3] = assay: Antifungal activity against Didymella rabiei in chickpea plant assessed as dry grain yield at 50 ppm compound three sprays 15 intervals (Control = 0.268 t/ha); assay type: functional
# Ascochyta rabiei [4] = assay: Antifungal activity against Didymella rabiei in chickpea plant assessed as dry grain yield at 50 ppm compound two sprays 15 intervals (Control = 0.268 t/ha); assay type: functional
# Ascochyta rabiei [5] = assay: Antifungal activity against Didymella rabiei in chickpea plant assessed as dry grain yield at 50 ppm compound single spray 15 intervals (Control = 0.268 t/ha); assay type: functional
# Ascochyta rabiei [6] = assay: Antifungal activity against Didymella rabiei in chickpea plant assessed as dry grain yield at 50 ppm compound treated by seeds soaking for 24 hr (Control = 0.268 t/ha); assay type: functional
# Ascochyta rabiei [7] = assay: Antifungal activity against Didymella rabiei in chickpea plant assessed as chickpea blight disease severity at 50 ppm compound three sprays 15 intervals (Control = 45.8%); assay type: functional
# Ascochyta rabiei [8] = assay: Antifungal activity against Didymella rabiei in chickpea plant assessed as chickpea blight disease severity at 50 ppm compound two sprays 15 intervals (Control = 45.8%); assay type: functional
# Ascochyta rabiei [9] = assay: Antifungal activity against Didymella rabiei in chickpea plant assessed as chickpea blight disease severity at 50 ppm compound single spray 15 intervals (Control = 45.8%); assay type: functional
# Ascochyta rabiei [10] = assay: Antifungal activity against Didymella rabiei in chickpea plant assessed as chickpea blight disease severity at 50 ppm compound treated by seeds soaking for 24 hr (Control = 45.8%); assay type: functional
# Ascochyta rabiei [11] = assay: Antifungal activity against Didymella rabiei inoculated in chickpea plant assessed as reduction in chickpea blight disease at 100 ppm compound single spray 96 or 120 hr before inoculation by green house experiment; assay type: functional, organism-based
# Ascochyta rabiei [12] = assay: Antifungal activity against Didymella rabiei inoculated in chickpea plant assessed as reduction in chickpea blight disease at 100 ppm compound single spray 24 to 72 hr before inoculation by green house experiment; assay type: functional, organism-based
smiles,measurement,setting,value
CSC(=O)c1cccc2nnsc12 [ACIBENZOLAR-S-METHYL],inhibition at 100 ppm,Ascochyta rabiei [1],72.4%
same,inhibition,Ascochyta rabiei [2],Active
same,Crop_yield,Ascochyta rabiei [3],0.922 tons/ha
same,Crop_yield,Ascochyta rabiei [4],1.066 tons/ha
same,Crop_yield,Ascochyta rabiei [5],0.52 tons/ha
same,Crop_yield,Ascochyta rabiei [6],0.456 tons/ha
same,Activity,Ascochyta rabiei [7],4.2%
same,Activity,Ascochyta rabiei [8],7.5%
same,Activity,Ascochyta rabiei [9],17.5%
same,Activity,Ascochyta rabiei [10],22.5%
same,inhibition,Ascochyta rabiei [11],inactive
same,inhibition,Ascochyta rabiei [12],Active
